Experimental data from PMC4448990 (Pharmacology Research & Perspectives, 2015).
Like-named read-outs stand apart in the source and are kept apart here. Marks after values point to notes of the source that are not given here.

Tests used:
[1] = molecular target: human α5β2γ2 GABAA receptors (Homo sapiens, UniProt P18507+P31644+P47870); experiment: submaximal GABA currents in Ltk cells; assay type: cell-based
[2] = molecular target: human α1β2γ2 GABAA receptors (Homo sapiens, UniProt P14867+P18507+P47870); experiment: submaximal GABA currents in Ltk cells; assay type: cell-based
Sequence of human α1β2γ2 GABAA receptors (P14867 28-456): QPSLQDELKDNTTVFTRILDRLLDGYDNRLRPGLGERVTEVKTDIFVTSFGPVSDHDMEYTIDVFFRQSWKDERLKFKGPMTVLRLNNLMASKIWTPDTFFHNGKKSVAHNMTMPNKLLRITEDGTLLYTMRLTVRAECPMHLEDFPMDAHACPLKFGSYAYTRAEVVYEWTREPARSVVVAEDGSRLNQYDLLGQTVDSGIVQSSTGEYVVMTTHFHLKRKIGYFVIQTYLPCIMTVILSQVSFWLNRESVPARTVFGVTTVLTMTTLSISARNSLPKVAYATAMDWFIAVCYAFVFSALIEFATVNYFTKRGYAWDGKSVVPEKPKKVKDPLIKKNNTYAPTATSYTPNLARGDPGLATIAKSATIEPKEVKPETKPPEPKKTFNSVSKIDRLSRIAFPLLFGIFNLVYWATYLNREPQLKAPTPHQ
Sequence of human α1β2γ2 GABAA receptors (P47870 25-512 limits assumed): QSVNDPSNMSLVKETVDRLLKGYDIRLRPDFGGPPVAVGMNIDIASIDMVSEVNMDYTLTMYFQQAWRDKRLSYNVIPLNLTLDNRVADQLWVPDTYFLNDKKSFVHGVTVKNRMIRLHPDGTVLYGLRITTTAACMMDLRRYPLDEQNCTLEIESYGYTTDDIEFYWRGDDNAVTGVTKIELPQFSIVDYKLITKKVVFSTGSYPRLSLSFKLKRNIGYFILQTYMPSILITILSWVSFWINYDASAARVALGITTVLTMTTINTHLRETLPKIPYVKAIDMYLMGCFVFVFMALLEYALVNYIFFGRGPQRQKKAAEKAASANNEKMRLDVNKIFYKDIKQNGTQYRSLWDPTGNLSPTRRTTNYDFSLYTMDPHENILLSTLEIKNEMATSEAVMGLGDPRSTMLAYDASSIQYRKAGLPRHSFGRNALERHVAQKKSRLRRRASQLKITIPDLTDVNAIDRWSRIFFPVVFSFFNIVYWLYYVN
Sequence of human α1β2γ2 GABAA receptors (P18507 40-475): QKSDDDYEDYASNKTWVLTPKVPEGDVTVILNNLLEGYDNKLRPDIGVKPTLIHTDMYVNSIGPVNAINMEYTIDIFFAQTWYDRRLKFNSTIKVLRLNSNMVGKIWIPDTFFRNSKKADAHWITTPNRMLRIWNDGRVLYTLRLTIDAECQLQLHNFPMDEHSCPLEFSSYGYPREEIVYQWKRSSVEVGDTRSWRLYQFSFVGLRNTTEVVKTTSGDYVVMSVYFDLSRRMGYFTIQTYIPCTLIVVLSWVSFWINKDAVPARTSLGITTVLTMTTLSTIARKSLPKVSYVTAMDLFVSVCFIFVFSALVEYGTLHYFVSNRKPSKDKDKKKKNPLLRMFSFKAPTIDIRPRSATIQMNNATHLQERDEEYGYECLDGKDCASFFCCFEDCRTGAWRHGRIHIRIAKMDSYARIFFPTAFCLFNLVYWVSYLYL

[3] = system: transient Na+ current (INaT); conditions: ref Döser et al. [2013b], [2015]; cited from earlier work
[4] = molecular target: hCav2.1 calcium channels (Homo sapiens, UniProt O00555); experiment: whole-cell patch clamp, hCav2.1 in CHO cells; assay type: cell-based; conditions: IC50, hCav2.1 calcium peak currents, 0.3–1000 μmol/L, holding potential −80 mV
[5] = molecular target: human α3β2γ2 GABAA receptors (Homo sapiens, UniProt P18507+P34903+P47870); experiment: submaximal GABA currents in Ltk cells; assay type: cell-based
Sequence of human α3β2γ2 GABAA receptors (P34903 29-492): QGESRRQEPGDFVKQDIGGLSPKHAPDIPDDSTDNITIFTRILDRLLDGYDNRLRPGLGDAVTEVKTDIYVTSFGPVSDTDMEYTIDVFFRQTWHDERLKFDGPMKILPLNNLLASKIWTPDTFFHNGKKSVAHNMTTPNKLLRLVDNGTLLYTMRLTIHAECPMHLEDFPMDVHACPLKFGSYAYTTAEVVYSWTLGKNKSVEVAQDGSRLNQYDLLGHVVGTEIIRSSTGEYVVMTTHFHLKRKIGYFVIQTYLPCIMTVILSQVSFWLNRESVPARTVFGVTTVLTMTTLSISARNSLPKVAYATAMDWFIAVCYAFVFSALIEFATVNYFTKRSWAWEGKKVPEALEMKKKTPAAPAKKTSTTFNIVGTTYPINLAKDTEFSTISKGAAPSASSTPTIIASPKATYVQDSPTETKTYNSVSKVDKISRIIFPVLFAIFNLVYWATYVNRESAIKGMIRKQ
Sequence of human α3β2γ2 GABAA receptors (P47870 25-512 limits assumed): as the sequence (P47870 25-512 limits assumed) above
Sequence of human α3β2γ2 GABAA receptors (P18507 40-475): as the sequence (P18507 40-475) above

[6] = molecular target: hKv7.2 potassium channels (Homo sapiens, UniProt O43526); experiment: whole-cell patch clamp, hKv7.2 in CHO cells; assay type: cell-based
[7] = molecular target: T1, human GlyRα3 glycine receptors (Homo sapiens, UniProt O75311); experiment: submaximal glycine currents in CHO cells; assay type: cell-based
T1 sequence (O75311 34-464): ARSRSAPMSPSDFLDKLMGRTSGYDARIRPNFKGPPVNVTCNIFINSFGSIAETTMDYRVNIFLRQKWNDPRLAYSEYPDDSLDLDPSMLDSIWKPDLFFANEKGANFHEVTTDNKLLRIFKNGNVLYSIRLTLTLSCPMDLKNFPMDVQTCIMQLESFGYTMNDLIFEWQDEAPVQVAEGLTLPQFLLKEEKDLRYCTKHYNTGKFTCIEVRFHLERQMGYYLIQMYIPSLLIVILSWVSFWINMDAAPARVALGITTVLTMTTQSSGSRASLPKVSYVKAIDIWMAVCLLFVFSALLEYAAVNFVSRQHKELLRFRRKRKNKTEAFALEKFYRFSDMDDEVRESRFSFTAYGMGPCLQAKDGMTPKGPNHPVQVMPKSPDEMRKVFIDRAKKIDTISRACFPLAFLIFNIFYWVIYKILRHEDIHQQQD

[8] = system: sodium channels endogenously expressed in N1E-115 mouse neuroblastoma cells; conditions: 250 μmol/L; ref Hebeisen et al. [2014]; cited from earlier work
[9] = molecular target: human Nav1.3 sodium channels (Homo sapiens, UniProt Q9NY46); experiment: whole-cell patch clamp, Nav1.3 in CHO-K1 cells; assay type: cell-based; conditions: 250 μmol/L; for Fast inactivation V0.5 / Slow inactivation V0.5: n = 3–6; for time constant for entering the slow inactivated state: control 20.29 sec
Sequence of human Nav1.3 sodium channels (Q9NY46 whole entry): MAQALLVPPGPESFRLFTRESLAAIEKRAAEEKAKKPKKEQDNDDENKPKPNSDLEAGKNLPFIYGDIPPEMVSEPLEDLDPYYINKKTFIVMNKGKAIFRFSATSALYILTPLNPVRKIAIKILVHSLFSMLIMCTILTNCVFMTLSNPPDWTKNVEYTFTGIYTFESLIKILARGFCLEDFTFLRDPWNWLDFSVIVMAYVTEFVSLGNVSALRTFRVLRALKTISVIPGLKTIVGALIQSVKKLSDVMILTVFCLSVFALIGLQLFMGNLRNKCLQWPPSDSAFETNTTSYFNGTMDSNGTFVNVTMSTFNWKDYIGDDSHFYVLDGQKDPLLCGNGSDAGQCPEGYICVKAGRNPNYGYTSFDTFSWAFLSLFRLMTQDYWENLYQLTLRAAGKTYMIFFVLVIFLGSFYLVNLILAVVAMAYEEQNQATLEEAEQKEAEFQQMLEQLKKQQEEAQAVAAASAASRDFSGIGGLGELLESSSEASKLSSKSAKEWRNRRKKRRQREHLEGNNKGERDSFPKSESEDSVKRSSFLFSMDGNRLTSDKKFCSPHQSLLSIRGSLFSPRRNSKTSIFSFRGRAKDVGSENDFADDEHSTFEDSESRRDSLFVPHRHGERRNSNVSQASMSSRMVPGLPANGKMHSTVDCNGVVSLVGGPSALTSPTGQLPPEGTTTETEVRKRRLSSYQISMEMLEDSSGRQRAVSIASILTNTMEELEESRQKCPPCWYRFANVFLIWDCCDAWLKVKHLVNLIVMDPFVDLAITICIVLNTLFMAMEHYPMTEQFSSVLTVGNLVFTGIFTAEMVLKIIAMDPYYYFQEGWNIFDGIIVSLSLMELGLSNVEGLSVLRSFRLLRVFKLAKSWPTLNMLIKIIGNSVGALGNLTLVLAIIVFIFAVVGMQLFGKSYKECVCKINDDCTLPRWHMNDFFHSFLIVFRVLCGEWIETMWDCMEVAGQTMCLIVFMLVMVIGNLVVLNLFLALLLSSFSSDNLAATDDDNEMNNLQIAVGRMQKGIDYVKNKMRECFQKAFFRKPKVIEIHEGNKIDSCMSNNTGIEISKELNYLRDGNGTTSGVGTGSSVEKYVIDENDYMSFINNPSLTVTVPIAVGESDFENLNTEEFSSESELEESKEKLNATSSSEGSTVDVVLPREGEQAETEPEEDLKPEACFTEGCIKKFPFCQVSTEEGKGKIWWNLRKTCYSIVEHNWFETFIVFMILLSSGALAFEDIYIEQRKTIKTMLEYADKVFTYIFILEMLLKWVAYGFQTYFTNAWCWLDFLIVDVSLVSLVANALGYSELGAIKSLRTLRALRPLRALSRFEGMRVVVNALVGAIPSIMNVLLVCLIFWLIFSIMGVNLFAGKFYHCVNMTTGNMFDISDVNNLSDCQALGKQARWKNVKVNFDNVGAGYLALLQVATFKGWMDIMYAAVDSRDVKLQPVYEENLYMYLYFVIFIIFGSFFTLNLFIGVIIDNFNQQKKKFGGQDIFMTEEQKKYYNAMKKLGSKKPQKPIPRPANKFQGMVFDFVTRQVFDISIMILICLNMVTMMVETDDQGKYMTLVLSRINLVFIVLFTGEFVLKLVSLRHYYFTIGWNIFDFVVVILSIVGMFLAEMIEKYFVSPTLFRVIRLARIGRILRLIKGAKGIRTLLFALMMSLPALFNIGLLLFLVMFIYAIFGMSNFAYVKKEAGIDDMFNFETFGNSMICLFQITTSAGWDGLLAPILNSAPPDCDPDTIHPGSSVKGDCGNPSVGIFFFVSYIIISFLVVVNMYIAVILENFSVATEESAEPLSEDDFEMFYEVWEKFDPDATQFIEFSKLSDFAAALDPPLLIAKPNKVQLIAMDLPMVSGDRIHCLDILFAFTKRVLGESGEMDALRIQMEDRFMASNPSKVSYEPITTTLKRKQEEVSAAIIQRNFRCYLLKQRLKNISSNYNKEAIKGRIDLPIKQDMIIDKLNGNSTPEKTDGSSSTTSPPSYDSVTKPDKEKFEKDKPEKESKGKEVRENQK

[10] = molecular target: human GRIN1/GRIN2B NMDA receptor (Homo sapiens, UniProt Q05586+Q13224); experiment: submaximal NMDA-receptor-mediated currents in HEK cells; assay type: cell-based
[11] = system: Racine stage 5 seizures; experiment: proconvulsant effects; assay type: in vivo
[12] = molecular target: human α2β2γ2 GABAA receptors (Homo sapiens, UniProt P18507+P47869+P47870); experiment: submaximal GABA currents in Ltk cells; assay type: cell-based
Sequence of human α2β2γ2 GABAA receptors (P47869 29-451): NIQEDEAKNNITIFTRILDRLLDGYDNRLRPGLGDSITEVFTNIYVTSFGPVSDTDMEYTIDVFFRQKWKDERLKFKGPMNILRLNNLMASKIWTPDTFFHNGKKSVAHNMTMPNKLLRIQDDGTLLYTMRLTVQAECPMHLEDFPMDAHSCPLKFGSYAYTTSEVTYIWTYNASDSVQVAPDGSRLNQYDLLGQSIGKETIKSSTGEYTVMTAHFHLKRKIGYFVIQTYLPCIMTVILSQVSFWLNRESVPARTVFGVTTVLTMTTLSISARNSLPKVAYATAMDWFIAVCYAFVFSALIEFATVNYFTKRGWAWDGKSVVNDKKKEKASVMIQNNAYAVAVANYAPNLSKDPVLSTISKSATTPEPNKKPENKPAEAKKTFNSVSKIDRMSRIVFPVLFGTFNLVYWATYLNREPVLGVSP
Sequence of human α2β2γ2 GABAA receptors (P47870 25-512 limits assumed): as the sequence (P47870 25-512 limits assumed) above
Sequence of human α2β2γ2 GABAA receptors (P18507 40-475): as the sequence (P18507 40-475) above

[13] = system: kindling epileptogenesis; experiment: bilateral corneal kindling; assay type: in vivo, mouse; conditions: Table 5 summary; values are ED50 (mg/kg)
[14] = molecular target: human GRIA1 receptor (Homo sapiens, UniProt P42261); experiment: AMPA-receptor-mediated currents in CHO cells; assay type: cell-based
[15] = system: MES-induced seizures; conditions: mouse, ESL 50 mg/kg p.o.; ref Pires et al. [2011]; cited from earlier work
[16] = system: latrunculin A-induced seizures; conditions: ESL 100 mg/kg oral, ref Sierra-Paredes et al. [2011], 2014, cited from earlier work
[17] = human plasma and CSF pharmacokinetics; assay type: in vivo; conditions: LCM 600 mg twice daily, protein binding ∼15%
[18] = ref Doty et al. [2007]; cited from earlier work
[19] = ref Nunes et al. [2013], cited from earlier work

Sequence of human α5β2γ2 GABAA receptors (P31644 32-462): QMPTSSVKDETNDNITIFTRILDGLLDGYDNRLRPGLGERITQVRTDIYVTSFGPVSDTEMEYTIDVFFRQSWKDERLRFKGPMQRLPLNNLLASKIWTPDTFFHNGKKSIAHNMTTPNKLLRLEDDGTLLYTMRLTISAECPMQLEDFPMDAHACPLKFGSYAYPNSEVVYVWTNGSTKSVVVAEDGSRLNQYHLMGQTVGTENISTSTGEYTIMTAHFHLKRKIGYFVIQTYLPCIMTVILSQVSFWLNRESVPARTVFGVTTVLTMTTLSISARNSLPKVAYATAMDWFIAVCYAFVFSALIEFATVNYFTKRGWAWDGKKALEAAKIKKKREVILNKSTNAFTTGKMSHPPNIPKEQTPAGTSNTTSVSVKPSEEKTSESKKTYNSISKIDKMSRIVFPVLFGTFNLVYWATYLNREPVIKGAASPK
Sequence of human α5β2γ2 GABAA receptors (P47870 25-512 limits assumed): as the sequence (P47870 25-512 limits assumed) above
Sequence of human α5β2γ2 GABAA receptors (P18507 40-475): as the sequence (P18507 40-475) above

Structure (SMILES): NC(=O)N1c2ccccc2C=Cc2ccccc21 [CBZ, carbamazepine]
- GABA inward current stimulation, α5β2γ2, Mean ± SEM ([1]; 50 μmol/L): 103.8 ± 1.5
- GABA inward current stimulation, α5β2γ2, Mean ± SEM ([1]; 100 μmol/L): 103.8 ± 4.5
- GABA inward current stimulation, α5β2γ2, Mean ± SEM ([1]; 250 μmol/L): 93.6 ± 4.3
- GABA inward current stimulation, α5β2γ2, Mean ± SEM ([1]; 500 μmol/L): 80.7 ± 5.9
- GABA inward current stimulation, α5β2γ2, Mean ± SEM ([1]; 1000 μmol/L): 63.0 ± 4.5
- GABA inward current stimulation, α1β2γ2, Mean ± SEM ([2]; 50 μmol/L): 104.3 ± 5.0
- GABA inward current stimulation, α1β2γ2, Mean ± SEM ([2]; 100 μmol/L): 117.4 ± 4.9
- GABA inward current stimulation, α1β2γ2, Mean ± SEM ([2]; 250 μmol/L): 115.7 ± 5.3
- GABA inward current stimulation, α1β2γ2, Mean ± SEM ([2]; 500 μmol/L): 132.4 ± 5.3
- GABA inward current stimulation, α1β2γ2, Mean ± SEM ([2]; 1000 μmol/L): 150.3 ± 15.5
- increase of submaximal α1β2γ2 GABA currents ([2]; 1000 μmol/L): 50%
- inhibition of firing of DGCs, control versus pilocarpine-treated rats [3]: significantly reduced in chronic experimental epilepsy
- IC50 [4]: 452 µM
- GABA inward current stimulation, α3β2γ2, Mean ± SEM ([5]; 50 μmol/L): 93.3 ± 4.1
- GABA inward current stimulation, α3β2γ2, Mean ± SEM ([5]; 100 μmol/L): 112.8 ± 5.4
- GABA inward current stimulation, α3β2γ2, Mean ± SEM ([5]; 250 μmol/L): 131.1 ± 9.4
- GABA inward current stimulation, α3β2γ2, Mean ± SEM ([5]; 500 μmol/L): 120.3 ± 11.8
- GABA inward current stimulation, α3β2γ2, Mean ± SEM ([5]; 1000 μmol/L): 166.7 ± 21.0
- increase of submaximal α3β2γ2 GABA currents ([5]; 1000 μmol/L): 66%
- IC50 [6]: 572 µM
- IC50 [7]: 441 µM
- recovery of fast inactivated channels [8]: required longer pulses to recover
- Fast inactivation V0.5 ([9]; mean ± SEM): −72.33 ± 5.04 mV
- Slow inactivation V0.5 ([9]; mean ± SEM): −21.56 ± 3.23 mV
- Fast inactivation, individual shifts ([9]; versus control (bath), mean ± SEM): −14.35 mV
- time constant for entering the slow inactivated state [9]: not affected
- IC50 [10]: 214 µM
- Racine stage 5 seizures (proconvulsant effects) ([11]; at 45 mg/kg): 80% ^**
- GABA inward current stimulation, α2β2γ2, Mean ± SEM ([12]; 50 μmol/L): 97.9 ± 3.3
- GABA inward current stimulation, α2β2γ2, Mean ± SEM ([12]; 100 μmol/L): 111.4 ± 2.7
- GABA inward current stimulation, α2β2γ2, Mean ± SEM ([12]; 250 μmol/L): 109.0 ± 7.6
- GABA inward current stimulation, α2β2γ2, Mean ± SEM ([12]; 500 μmol/L): 103.6 ± 7.6
- GABA inward current stimulation, α2β2γ2, Mean ± SEM ([12]; 1000 μmol/L): 104.2 ± 2.7
- Corneal kindling (antiepileptogenic models) [13]: 140 mg/kg
- IC50, AMPA currents ([14]; CHO cells, human GRIA1): neither eslicarbazepine nor CBZ significantly changed AMPA currents

Structure (SMILES): N[C@H](CCCP(=O)(O)O)C(=O)O [D-AP5, D-(−)-2-amino-5-phosphonopentanoic]
- IC50 ([10]; read-out: IC50, NMDA receptor-mediated currents, submaximal currents, HEK cells GRIN1/GRIN2B): 7 µM

Structure (SMILES): CC(=O)O[C@H]1Cc2ccccc2N(C(N)=O)c2ccccc21 [ESL, (S)-10-acetoxy-10,11-dihydro-5H-dibenz/b,f/azepine-5-carboxamide]
- protection against MES-induced seizures [15]: 97%
- Racine stage 5 seizures (proconvulsant effects) ([11]; at 240 mg/kg): 22% ^*
- Corneal kindling (antiepileptogenic models) [13]: 30 mg/kg
- hippocampal extracellular glutamate levels ([16]; microdialysate): significantly reduced glutamate levels
- acute and chronic latrunculin A-induced seizures and EEG chronic signs of paroxysmal activity ([16]; Swiss mice, previous to latrunculin A microperfusion): completely prevented

Structure (SMILES): COC[C@@H](NC(C)=O)C(=O)NCc1ccccc1 [LCM, lacosamide]
- LCM-free drug, peak plasma [17]: 49 µmol/L
- recovery of fast inactivated channels [8]: recovered similar to control conditions
- Fast inactivation V0.5 ([9]; mean ± SEM): −53.54 ± 3.95 mV
- Slow inactivation V0.5 ([9]; mean ± SEM): −37.04 ± 2.72 mV
- time constant for entering the slow inactivated state [9]: 10.91 s
- LCM protein binding [18]: ~15%

Structure (SMILES): NS(=O)(=O)c1cccc2c1c([N+](=O)[O-])cc1nc(O)c(O)nc12 [NBQX, 2,3-Dioxo-6-nitro-1,2,3,4-tetrahydrobenzo[f]quinoxaline-7-sulfonamide]
- IC50 [14]: 19 µM

Structure (SMILES): NC(=O)N1c2ccccc2CC(=O)c2ccccc21 [OXC, oxcarbazepine]
- recovery of fast inactivated channels [8]: required longer pulses to recover
- Fast inactivation V0.5 ([9]; mean ± SEM): −55.95 ± 2.91 mV
- Slow inactivation V0.5 ([9]; mean ± SEM): −19.47 ± 4.55 mV
- time constant for entering the slow inactivated state [9]: not affected
- CSF Cmax of nonmetabolized OXC ([19]; ESL 1200 mg QD): 0.38 µmol/L
- CSF Cmax of nonmetabolized OXC ([19]; OXC 600 mg BID): 1.82 µmol/L

Structure (SMILES): O=C1C[C@@H]2OCC=C3CN4CC[C@]56c7ccccc7N1[C@H]5[C@H]2[C@H]3C[C@H]46 [Strychnine]
- IC50 [7]: 0.052 µM

Structure (SMILES): Cc1ncc2n1-c1ccc(Cl)cc1C(c1ccccc1F)=NC2 [midazolam]
- increase of submaximal α1β2γ2 GABA currents ([2]; 3 μmol/L): ~80%
